Literature values as cited in patent US6939400B2, “Ink, production method of the same materials for producing the same and printed matter with the same” (Teikoku Printing Mfg. Co., Ltd., priority 2002, dated 2005).

Tested on: mouse

## COC(C)(C)CCO [3-methyl-3-methoxy-1-butanol]
  LD 50 value representing the mouse oral toxicity: 5,830 mg/kg
